In publication PMC3617406 (Molecular pharmaceutics, 2013):
Entries after “also recorded” stand apart in the source; their conditions may differ. Where a name gives a salt, the structure may show the parent alone.

Tests used:
human NTCP [1] = molecular target: T1, human NTCP (Homo sapiens, UniProt Q14973); assay type: cell-based; conditions: for NTCP inhibitor or non-inhibitor: inhibitor = Ki less than 300 μM; for potency estimated from few doses: read-out: Estimated Ki for NTCP
T1 sequence (Q14973 1-349): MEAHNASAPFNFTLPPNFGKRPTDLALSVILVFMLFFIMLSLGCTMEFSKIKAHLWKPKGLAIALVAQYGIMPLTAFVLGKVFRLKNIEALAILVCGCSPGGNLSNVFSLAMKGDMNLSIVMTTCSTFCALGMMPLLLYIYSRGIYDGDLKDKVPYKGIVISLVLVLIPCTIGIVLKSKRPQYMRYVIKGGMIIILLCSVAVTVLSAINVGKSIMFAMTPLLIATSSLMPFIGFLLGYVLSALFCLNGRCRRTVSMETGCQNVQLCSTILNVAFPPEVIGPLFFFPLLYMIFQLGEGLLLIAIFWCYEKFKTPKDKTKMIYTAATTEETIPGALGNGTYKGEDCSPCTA

human ASBT = molecular target: T2, human ASBT (Homo sapiens, UniProt Q12908); assay type: cell-based; conditions: for potency estimated from few doses: read-out: Estimated Ki for ASBT; for taurocholate uptake into ASBT-MDCK cells, percent of control: single drug concentration, same as in NTCP screening (typically 100 μM); for ASBT inhibitor or non-inhibitor: inhibitor = Ki below 300 μM
T2 sequence (Q12908 1-348): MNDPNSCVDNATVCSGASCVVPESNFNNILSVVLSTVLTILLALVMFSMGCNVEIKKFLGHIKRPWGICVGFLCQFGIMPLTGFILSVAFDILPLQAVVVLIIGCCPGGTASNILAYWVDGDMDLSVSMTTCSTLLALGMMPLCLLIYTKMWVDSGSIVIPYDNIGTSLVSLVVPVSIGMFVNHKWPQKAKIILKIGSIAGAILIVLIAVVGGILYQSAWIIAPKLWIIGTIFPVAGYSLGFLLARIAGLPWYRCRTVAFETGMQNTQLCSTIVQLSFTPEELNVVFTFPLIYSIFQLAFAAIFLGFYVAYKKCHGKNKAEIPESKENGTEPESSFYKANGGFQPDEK

human NTCP [2] = molecular target: T1, human NTCP; assay type: cell-based
Cytotoxicity study = conditions: dog, ASBT-MDCK cells
human NTCP [3] = molecular target: T1, human NTCP; test: Taurocholate uptake kinetics into NTCP-HEK293 cells; conditions: Figure S1

NTCP inhibitor or non-inhibitor (human NTCP [1])	potency estimated from few doses (human NTCP [1]) [µM]	potency estimated from few doses (human ASBT) [µM]	Ki (human NTCP [2]) [µM]	Structure (SMILES)	further results
inhibited NTCP	264 ± 94	62.6 ± 15	220 ± 45	CCCC1O[C@@H]2C[C@H]3[C@@H]4CCC5=CC(=O)C=C[C@]5(C)[C@H]4[C@@H](O)C[C@]3(C)[C@]2(C(=O)CO)O1 (stereo partly drawn) [Budesonide]	taurocholate uptake into ASBT-MDCK cells, percent of control (human ASBT): below 50%
NTCP inhibitors	280 ± 37	27.4 ± 4.6	209 ± 27	CN1CCN(CCCN2c3ccccc3Sc3ccc(Cl)cc32)CC1 [Prochlorperazine]	taurocholate uptake into ASBT-MDCK cells, percent of control (human ASBT): below 50%
inhibited NTCP	145 ± 44	67.6 ± 30	233 ± 37	CCOc1nc2cccc(C(=O)O)c2n1Cc1ccc(-c2ccccc2-c2nnn[nH]2)cc1 [Candesartan]	–
–	384 ± 185	> 100	–	CCN(CC)CCNC(=O)c1ccc(N)cc1 [Procainamide HCl]	–
–	> 100	85.8 ± 2.3	–	CCCCOc1cc(C(=O)NCCN(CC)CC)c2ccccc2n1 [Dibucaine]	fold more potent ASBT inhibition than NTCP inhibition (human ASBT; Ki values of Table 4 and 5): ≥ 10 fold
–	> 100	30.3 ± 11	–	CCCN(CCC)CCc1cccc2c1CC(=O)N2 [Ropinirole]	taurocholate uptake into ASBT-MDCK cells, percent of control (human ASBT): below 50%
–	1660 ± 2870	529 ± 600	–	O=C1C(CC[S+]([O-])c2ccccc2)C(=O)N(c2ccccc2)N1c1ccccc1 (stereo not drawn) [Sulfinpyrazone]	–
inhibited NTCP	211 ± 60	121 ± 33	129 ± 20	CC(C)OC(=O)C(C)(C)Oc1ccc(C(=O)c2ccc(Cl)cc2)cc1 [Fenofibrate]	taurocholate uptake into ASBT-MDCK cells, percent of control (human ASBT): 64.7%; viability at 10 min, 100 μM (Cytotoxicity study): 79.2%
NTCP inhibitors	141 ± 14	31.3 ± 7.7	173 ± 24	COc1ccc2c(c1)c(CC(=O)O)c(C)n2C(=O)c1ccc(Cl)cc1 [Indomethacin]	taurocholate uptake into ASBT-MDCK cells, percent of control (human ASBT): below 50%
–	–	–	–	C[C@H](CCC(=O)NCCS(=O)(=O)O)[C@H]1CC[C@H]2[C@@H]3[C@H](O)C[C@@H]4C[C@H](O)CC[C@]4(C)[C@H]3C[C@H](O)[C@]12C [taurocholate, Taurocholate]	Kt (taurocholate Michaelis-Menten constant) (human NTCP [3]): 22.7(±3.4) μM; Vmax (human NTCP [3]): 1.80(±0.03) pmol/sec/cm^2; passive permeability Pp (human NTCP [3]): 1.27(±0.03)x10^−6 cm/sec
NTCP inhibitors	100 ± 8	30.8 ± 3.6	126 ± 20	CCc1nn(CCCN2CCN(c3cccc(Cl)c3)CC2)c(=O)n1CCOc1ccccc1 [Nefazodone]	taurocholate uptake into ASBT-MDCK cells, percent of control (human ASBT): below 50%
–	332 ± 73	208 ± 51	–	CN/C(=N/CCSCc1nc[nH]c1C)NC#N [Cimetidine]	–
–	435 ± 114	425 ± 155	544 ± 217	CCCN(CCC)S(=O)(=O)c1ccc(C(=O)O)cc1 [Probenecid]	–
inhibited NTCP	111 ± 7	77 ± 16	200 ± 32	CC(C)[C@H]1CC[C@H](C(=O)N[C@H](Cc2ccccc2)C(=O)O)CC1 [Nateglinide]	–
inhibited NTCP	–	131 ± 34	–	CCCCC1=NC2(CCCC2)C(=O)N1Cc1ccc(-c2ccccc2-c2nnn[nH]2)cc1 [Irbesartan]	–
–	361 ± 178	480 ± 609	321 ± 57	CC(C(=O)O)c1cccc(C(=O)c2ccccc2)c1 (stereo not drawn) [Ketoprofen]	–
–	402 ± 116	50.3 ± 18	–	CCCNCC(O)COc1ccccc1C(=O)CCc1ccccc1 (stereo not drawn) [Propafenone HCl]	–
inhibited NTCP	41.2 ± 7.1	20.9 ± 7.3	35.3 ± 5.4	COc1cc2nc(N3CCN(C(=O)C4COc5ccccc5O4)CC3)nc(N)c2cc1OC (stereo not drawn) [Doxazosin]	–
NTCP inhibitors	98.8 ± 12	61.9 ± 27	202	CC(=O)N1CCN(c2ccc(OCC3COC(Cn4ccnc4)(c4ccc(Cl)cc4Cl)O3)cc2)CC1 (stereo not drawn) [Ketoconazole]	ASBT inhibitor or non-inhibitor (human ASBT): ASBT inhibitors; taurocholate uptake into ASBT-MDCK cells, percent of control (human ASBT): below 50%
–	460 ± 232	237 ± 21	599 ± 212	COc1ccc([C@@H]2Sc3ccccc3N(CCN(C)C)C(=O)[C@@H]2OC(C)=O)cc1 [Diltiazem]	–
inhibited NTCP	217 ± 69	136 ± 13	–	COc1ccc2cc([C@H](C)C(=O)O)ccc2c1 [Naproxen]	–
–	304 ± 132	> 100	–	NS(=O)(=O)c1cc(C(=O)O)c(NCc2ccco2)cc1Cl [Furosemide]	–

Structure (SMILES)	NTCP inhibitor or non-inhibitor (human NTCP [1])	potency estimated from few doses (human NTCP [1]) [µM]	potency estimated from few doses (human ASBT) [µM]	Ki (human NTCP [2]) [µM]	further results
CCCCC(=O)N(Cc1ccc(-c2ccccc2-c2nnn[nH]2)cc1)[C@H](C(=O)O)C(C)C [Valsartan]	did not inhibit NTCP	> 100	1260	–	viability at 10 min, 100 μM (Cytotoxicity study): 77.9%
C[C@H]1C[C@@H]2[C@H]([C@@H](O)C[C@@]3(C)[C@H]2CC[C@]3(O)C(=O)CO)[C@@]2(C)C=CC(=O)C=C12 [Methylprednisolone]	NTCP inhibitors; also recorded: inhibited NTCP but not ASBT	255 ± 53	> 100	238 ± 33	fold more potent NTCP inhibition than ASBT inhibition (human NTCP [1]; Ki values of Table 4 and 5): ≥ 10 fold; ASBT inhibitor or non-inhibitor (human ASBT): inhibited NTCP but not ASBT
